Where two headings read alike, the source gives them in different places.
Biological target: T1, human P450 11A1 (Homo sapiens, UniProt P05108)
T1 construct: M A S T R S P R P F N E I P S P G D N; Met-Ala (N-terminal start residues in place of the transit peptide and Ile40) (N); made in house; host or cells: E. coli C41(DE3) with GroES/GroEL, vector pET23C(+)
T1 sequence (P05108 41-521 limits assumed): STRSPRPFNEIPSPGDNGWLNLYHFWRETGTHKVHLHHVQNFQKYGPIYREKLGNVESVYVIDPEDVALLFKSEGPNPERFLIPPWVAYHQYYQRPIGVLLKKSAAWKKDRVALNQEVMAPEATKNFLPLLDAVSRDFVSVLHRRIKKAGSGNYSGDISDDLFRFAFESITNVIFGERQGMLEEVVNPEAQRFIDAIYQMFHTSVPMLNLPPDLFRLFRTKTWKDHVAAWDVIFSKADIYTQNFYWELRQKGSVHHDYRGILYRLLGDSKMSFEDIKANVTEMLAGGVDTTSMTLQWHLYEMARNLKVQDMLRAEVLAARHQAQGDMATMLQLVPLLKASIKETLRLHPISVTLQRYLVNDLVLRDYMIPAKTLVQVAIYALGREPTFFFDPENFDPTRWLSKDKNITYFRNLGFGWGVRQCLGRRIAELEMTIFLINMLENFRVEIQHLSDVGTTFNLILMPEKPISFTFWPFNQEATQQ
Experiment: Steady-state spectral (type I) binding titration, Kd determination
Protocol: Ligand binding constants were determined from the low-to high-spin (hypsochromic) spectral transition that occurs at the P450 heme as substrate entering the active site replaces water as the sixth axial heme ligand. […] As a result, we subsequently measured koff values of the P450-sterol complexes, which were consistent with the low Kd values observed (see below). Binding titrations were repeated in the presence of Adx (1 M equivalent, Fig. 6), although no significant effect was observed, even when Adx was added in excess (10-fold with cholesterol as the substrate, data not shown).
Spectra were recorded using either an OLIS-Cary 14 or OLIS-Aminco DW2a instrument (On-Line Instrument Systems) in the split-beam mode. The OLIS-Cary 14 instrument was used in the P450 11A1 titrations with a 10-cm cell (Starna Cells, catalog no. 34-Q-100, volume 25 ml).
Kd values were determined by difference spectroscopy as previously reported ([33], [43]) but with some modifications. Briefly, a long-path quartz cuvette (10 cm, 25 ml) containing P450 11A1 (0.1 μM, in 100 mM potassium phosphate buffer (pH 7.4)) was prepared and a baseline was recorded in an OLIS-Cary 14 spectrophotometer. Where indicated, the redox partner Adx was added in equimolar concentration (0.1 μM) to P450. Sterol solutions (in 45% HPCD, w/v) were added to the cuvette, the contents of the cuvette were inverted to mix, and a spectrum was recorded (350–500 nm) after each addition. The total volume added to each cuvette was kept ≤2% (v/v, 0.25 ml) in the assay. The maximum absorbance difference (usually ΔA390−A418) was plotted against the total sterol concentration, and the data were fit to a quadratic equation in GraphPad Prism software (GraphPad, https://www.graphpad.com) to estimate the dissociation constant (Kd). A quadratic equation was used to correct the ligand concentration for the enzyme-bound concentration (used as Y=B+A/2∗1/E∗((Kd+E+X)−(Kd+E+X)^2−(4∗E∗X)) (or Y = B + (A/2)∗(1/E)∗((Kd + E + X)-sqrt((Kd + E + X)∧2 -(4∗E∗X)) in Prism software), where E = enzyme concentration, Kd = dissociation constant, and X = […]).

[1] = 0.10 μM P450 11A1, 10 cm cuvette, with 0.10 μM Adx, quadratic fit, read-out: Kd, (+) Adx
[2] = 0.10 μM P450 11A1, 10 cm cuvette, without Adx, quadratic fit, read-out: Kd, (−) Adx

Compound | Kd (Kd, 100 nM P450 11A1, 10-cm cell, quadratic fitting) | Kd (Kd, (+) Adx, 0.10 μM P450 11A1, 10 cm cuvette, with 0.10 μM Adx, quadratic fit) | Kd (Kd, (−) Adx, 0.10 μM P450 11A1, 10 cm cuvette, without Adx, quadratic fit) | Kd [1] | Kd [2]
CC(C)CC[C@@H](O)[C@@H](C)[C@H]1CC[C@H]2[C@@H]3CC=C4C[C@@H](O)CC[C@]4(C)[C@H]3CC[C@]12C [22R-OH Chol, 22R-hydroxycholesterol] | ~0.02 µM | 0.02 ± 0.003 µM | 0.02 ± 0.01 µM |  | 
CC(C)CC[C@@H](O)[C@](C)(O)[C@H]1CC[C@H]2[C@@H]3CC=C4C[C@@H](O)CC[C@]4(C)[C@H]3CC[C@]12C [20R,22R-(OH)2 Chol, (20R,22R)-Cholest-5-ene-3β,20,22-triol] |  |  |  | 0.04 ± 0.01 µM | 0.03 ± 0.02 µM
CC(=O)[C@H]1CC[C@H]2[C@@H]3CC=C4C[C@@H](O)CC[C@]4(C)[C@H]3CC[C@]12C [Pregnenolone] |  |  |  | 0.56 ± 0.12 µM | 0.48 ± 0.22 µM
CC(C)CCC[C@@H](C)[C@H]1CC[C@H]2[C@@H]3CC=C4C[C@@H](O)CC[C@]4(C)[C@H]3CC[C@]12C [Cholesterol] |  |  |  | 0.11 ± 0.01 µM | 0.12 ± 0.01 µM
CC(C)CC[C@H](O)[C@](C)(O)[C@H]1CC[C@H]2[C@@H]3CC=C4C[C@@H](O)CC[C@]4(C)[C@H]3CC[C@]12C [20R,22S-(OH)2 Chol, (20R,22S)-Cholest-5-ene 3β,20,22-triol] |  |  |  | 0.09 ± 0.02 µM | 0.12 ± 0.03 µM

Source: publication PMC10716780, “The multistep oxidation of cholesterol to pregnenolone by human cytochrome P450 11A1 is highly processive” (The Journal of Biological Chemistry, 2023)
